Literature values, collected in US8945526B2, “Amphiphilic substance, and drug delivery system and molecular imaging system using the same” (Shimadzu Corporation, priority 2006, dated 2015).

Conditions: ICG singly administered

CC1(C)C(/C=C/C=C/C=C/C=C2\N(CCCCS(=O)(=O)O)c3ccc4ccccc4c3C2(C)C)=[N+](CCCCS(=O)(=O)[O-])c2ccc3ccccc3c21 [ICG, indocyanine green]
removal from the body: removed from a body in one hour
